From ChEMBL document CHEMBL5370659 (J Med Chem, 2023)
Converted amounts (≈) assume the structure as drawn.

Legend:
[1] = target: T1, Tryptophan 5-hydroxylase 1 (Homo sapiens, UniProt P17752); assay: Inhibition of recombinant MBP-tagged full length human THP1 using L-Trp as substrate assessed as formation of 5-HTP by measuring fluorescent property
T1 sequence (P17752 whole entry): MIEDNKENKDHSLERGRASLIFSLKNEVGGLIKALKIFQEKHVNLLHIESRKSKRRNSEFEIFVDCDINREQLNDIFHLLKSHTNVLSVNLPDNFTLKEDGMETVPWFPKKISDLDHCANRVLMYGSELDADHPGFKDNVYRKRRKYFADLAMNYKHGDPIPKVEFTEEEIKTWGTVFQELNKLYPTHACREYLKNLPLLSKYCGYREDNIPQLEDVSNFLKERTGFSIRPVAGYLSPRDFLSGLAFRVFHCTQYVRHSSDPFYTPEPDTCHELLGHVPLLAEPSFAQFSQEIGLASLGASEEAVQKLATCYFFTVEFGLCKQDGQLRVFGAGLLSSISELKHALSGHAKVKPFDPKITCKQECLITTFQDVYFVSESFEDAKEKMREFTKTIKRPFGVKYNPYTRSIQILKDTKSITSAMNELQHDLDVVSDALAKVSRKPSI

[2] = target: T2, Tryptophan 5-hydroxylase 2 (Homo sapiens, UniProt Q8IWU9); assay: Inhibition of recombinant MBP-tagged full length human THP2 using L-Trp as substrate assessed as formation of 5-HTP by measuring fluorescent property
T2 sequence (Q8IWU9 whole entry): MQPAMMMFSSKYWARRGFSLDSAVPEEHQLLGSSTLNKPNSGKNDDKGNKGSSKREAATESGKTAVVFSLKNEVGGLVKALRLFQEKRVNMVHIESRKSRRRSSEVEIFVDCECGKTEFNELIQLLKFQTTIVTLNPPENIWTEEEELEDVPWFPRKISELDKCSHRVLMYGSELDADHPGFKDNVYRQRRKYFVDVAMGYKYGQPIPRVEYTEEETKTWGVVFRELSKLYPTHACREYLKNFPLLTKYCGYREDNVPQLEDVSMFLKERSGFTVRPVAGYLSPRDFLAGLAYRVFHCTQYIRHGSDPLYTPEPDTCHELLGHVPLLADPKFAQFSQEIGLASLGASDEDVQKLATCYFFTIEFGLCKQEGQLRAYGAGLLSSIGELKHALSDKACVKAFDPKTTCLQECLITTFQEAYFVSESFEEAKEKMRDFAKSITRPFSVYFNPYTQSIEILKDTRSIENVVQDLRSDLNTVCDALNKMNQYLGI

[3] = Solubility in simulated intestinal fluid by HPLC-UV analysis; assay type: physicochemical
[4] = Aqueous solubility of the compound in pH 7.4 PBS buffer by HPLC-UV analysis; assay type: physicochemical
[5] = Solubility in simulated gastric fluid by HPLC-UV analysis; assay type: physicochemical
[6] = Plasma protein binding in human; assay type: ADME, cell-free; conditions: read-out: PPB (converted)
[7] = Plasma protein binding in rat; assay type: ADME, cell-free; conditions: read-out: PPB (converted)
[8] = Apparent permeability across apical to basal side in human Caco-2 cells at pH 6.5/7.4 measured at 5 uM by LC-MS/MS analysis; assay type: ADME, cell-based; conditions: Caco-2, pH 6.5
[9] = Apparent permeability across basal to apical side in human Caco-2 cells at pH 6.5/7.4 measured at 5 uM by LC-MS/MS analysis; assay type: ADME, cell-based; conditions: Caco-2, pH 6.5
[10] = Metabolic stability in human hepatocytes assessed as half life; assay type: ADME, cell-based, Hepatocyte
[11] = Metabolic stability in rat hepatocytes assessed as half life; assay type: ADME, cell-based, Hepatocyte
[12] = Metabolic stability in human hepatocytes assessed as intrinsic clearance; assay type: ADME, cell-based, Hepatocyte; conditions: read-out: CLH
[13] = Metabolic stability in rat hepatocytes assessed as intrinsic clearance; assay type: ADME, cell-based, Hepatocyte; conditions: read-out: CLH

Structure (SMILES)	IC50 [1]	IC50 [2]	other results
CCn1c(=O)[nH]c(=O)c2c1nc(Cc1cn3c(n1)CCCC3)n2Cc1cccc(C(=O)NC[C@H](N)C(=O)O)c1	1670 nM	176 nM	
CCn1c(=O)[nH]c(=O)c2c1nc(Cc1cn3c(n1)CCCC3)n2Cc1cccc(C(=O)NC[C@H](NC(=O)OCc2ccccc2)C(=O)OC)c1	380 nM	63 nM	
CCn1c(=O)[nH]c(=O)c2c1nc(Cc1cn3cc(Cl)sc3n1)n2Cc1ccc(-c2ccn(C)n2)cc1			solubility [3]: < 10 µM; solubility [4]: < 10 µM; solubility [5]: < 10 µM; fraction unbound [6]: 0.11; fraction unbound [7]: 0.11; Papp A→B at 5 µM [8]: 4.9 ×10⁻⁶ cm/s; Papp B→A at 5 µM [9]: 59.9 ×10⁻⁶ cm/s; half-life [10]: 40 min; half-life [11]: 8 min; CLint scaled [12]: 174 mL/min/kg; CLint scaled [13]: 854 mL/min/kg
CCn1c(=O)[nH]c(=O)c2c1nc(Cc1cn3cc(C)sc3n1)n2CCCC(=O)O	690 nM	69 nM	
CCn1c(=O)[nH]c(=O)c2c1nc(Cc1cn3cc(C)sc3n1)n2CCCOC	343 nM	38 nM	
CCn1c(=O)[nH]c(=O)c2c1nc(Cc1cn3cc(C)sc3n1)n2CC1CCCCC1	394 nM	152 nM	
CCn1c(=O)[nH]c(=O)c2c1nc(Cc1cn3c(n1)CCCC3)n2CC1COC1	772 nM	57 nM	
CCn1c(=O)[nH]c(=O)c2c1nc(Cc1cn3cc(C)sc3n1)n2C(C)C	228 nM	24 nM	
CCn1c(=O)[nH]c(=O)c2c1nc(Cc1cn3cc(C)sc3n1)n2Cc1cccc(C)n1	196 nM	24 nM	
CCn1c(=O)[nH]c(=O)c2c1nc(Cc1cn3c(n1)CCCC3)n2CC1CCC1	394 nM	32 nM	
CCn1c(=O)[nH]c(=O)c2c1nc(Cc1cn3ccccc3n1)n2Cc1ccc(-c2ccn(C)n2)cc1			solubility [3]: > 200 µM; solubility [4]: > 200 µM; solubility [5]: > 200 µM; fraction unbound [6]: 0.39; fraction unbound [7]: 0.29; Papp A→B at 5 µM [8]: 2.3 ×10⁻⁶ cm/s; Papp B→A at 5 µM [9]: 46.3 ×10⁻⁶ cm/s; half-life [10]: > 60 min; half-life [11]: 19 min; CLint scaled [12]: < 115 mL/min/kg; CLint scaled [13]: 367 mL/min/kg
CCc1nc(C)ccc1OCC(=O)N1CCc2nc3n(c2C1c1ccc(Cl)cc1F)CCCC3 (racemic)	151 nM	51 nM	
CCn1c(=O)[nH]c(=O)c2c1nc(Cc1cn3cc(C)sc3n1)n2CC1CCN(C)CC1	> 10000 nM	> 10000 nM	
CCOC(=O)CCCn1c(Cc2cn3cc(C)sc3n2)nc2c1c(=O)[nH]c(=O)n2CC	107 nM	26 nM	
CCn1c(=O)[nH]c(=O)c2c1nc(Cc1cn3cc(C)sc3n1)n2Cc1cc(C)cc(C)c1	113 nM	34 nM	
CCn1c(=O)[nH]c(=O)c2c1nc(Cc1cn3cc(C)sc3n1)n2Cc1ccccc1			solubility [3]: 48.5 µM (≈ 20.4 µg/mL); solubility [4]: 35.1 µM (≈ 14.8 µg/mL); solubility [5]: 177 µM (≈ 74.4 µg/mL); fraction unbound [6]: 0.24; fraction unbound [7]: 0.21; Papp A→B at 5 µM [8]: 24.7 ×10⁻⁶ cm/s; Papp B→A at 5 µM [9]: 53.9 ×10⁻⁶ cm/s; half-life [10]: 22 min; half-life [11]: 13 min; CLint scaled [12]: 315 mL/min/kg; CLint scaled [13]: 514 mL/min/kg
CCn1c(=O)[nH]c(=O)c2c1nc(Cc1cn3cc(C)sc3n1)n2Cc1ccccn1	84 nM	18 nM	

Structure (SMILES)	IC50 [1]	IC50 [2]	other results
CCn1c(=O)[nH]c(=O)c2c1nc(Cc1cn3c(n1)CCCC3)n2Cc1ccccc1			solubility [3]: > 200 µM; solubility [4]: > 200 µM; solubility [5]: 188 µM (≈ 75.8 µg/mL); fraction unbound [6]: 0.85; fraction unbound [7]: 0.82; Papp A→B at 5 µM [8]: 9.3 ×10⁻⁶ cm/s; Papp B→A at 5 µM [9]: 5.7 ×10⁻⁶ cm/s; half-life [10]: > 60 min; half-life [11]: > 60 min; CLint scaled [12]: < 115 mL/min/kg; CLint scaled [13]: < 115 mL/min/kg
CCn1c(=O)[nH]c(=O)c2c1nc(Cc1cn3cc(C)sc3n1)n2CC=C(C)C	81 nM	32 nM	
CCn1c(=O)[nH]c(=O)c2c1nc(Cc1cn3c(n1)CCCC3)n2Cc1cccc(C(=O)NC[C@H](N)C(=O)OC)c1	880 nM	58 nM	
CCn1c(=O)[nH]c(=O)c2c1nc(Cc1cn3cc(C)sc3n1)n2CC(=O)O	> 10000 nM	> 10000 nM	
CCOC(=O)Cn1c(Cc2cn3cc(C)sc3n2)nc2c1c(=O)[nH]c(=O)n2CC	300 nM	37 nM	
CCn1c(=O)[nH]c(=O)c2c1nc(Cc1cn3cc(C)sc3n1)n2CCC(=O)OC	533 nM	57 nM	
CCn1c(=O)[nH]c(=O)c2c1nc(Cc1cn3cc(C)sc3n1)n2CC1CCN(C(C)C)CC1	> 10000 nM	> 10000 nM	
CCn1c(=O)[nH]c(=O)c2c1nc(Cc1cn3cc(C)sc3n1)n2CC1CCC1	47 nM	31 nM	
CCn1c(=O)[nH]c(=O)c2c1nc(Cc1cn3cc(C)sc3n1)n2Cc1cccc(C(=O)O)c1	357 nM	58 nM	
CCn1c(=O)[nH]c(=O)c2c1nc(Cc1cn3cc(C)sc3n1)n2Cc1cccc(C(=O)OC)c1	66 nM	22 nM	
CCn1c(=O)[nH]c(=O)c2c1nc(Cc1cn3cc(C)sc3n1)n2Cc1ccc(C(F)(F)F)cc1	271 nM	52 nM	
CCn1c(=O)[nH]c(=O)c2c1nc(Cc1cn3cc(C)sc3n1)n2CC1CCNCC1	> 10000 nM	> 10000 nM	
CCn1c(=O)[nH]c(=O)c2c1nc(Cc1cn3cc(C)sc3n1)n2Cc1cccc(C(F)(F)F)c1	157 nM	41 nM	
CCn1c(=O)[nH]c(=O)c2c1nc(Cc1cn3cc(Cl)sc3n1)n2Cc1ccccc1			solubility [3]: 12.7 µM (≈ 5.6 µg/mL); solubility [4]: 3.7 µM (≈ 1.63 µg/mL); solubility [5]: 198 µM (≈ 87.1 µg/mL); fraction unbound [6]: 0.23; fraction unbound [7]: 0.25; Papp A→B at 5 µM [8]: 29.4 ×10⁻⁶ cm/s; Papp B→A at 5 µM [9]: 47.7 ×10⁻⁶ cm/s; half-life [10]: > 60 min; half-life [11]: > 60 min; CLint scaled [12]: < 115 mL/min/kg; CLint scaled [13]: < 115 mL/min/kg
CCn1c(=O)[nH]c(=O)c2c1nc(Cc1cn3c(n1)CCCC3)n2Cc1cccc(C(=O)O)c1	3270 nM	307 nM	
CCn1c(=O)[nH]c(=O)c2c1nc(Cc1cn3c(n1)CCCC3)n2Cc1cccc(C(=O)OC)c1	243 nM	25 nM	
CCn1c(=O)[nH]c(=O)c2c1nc(Cc1cn3cc(C)sc3n1)n2CCC=C(C)C	676 nM	116 nM	
